Experimental data published in ChEMBL document CHEMBL1201862, “PubChem BioAssay data set” (2004).
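Cultured in 96-well plates, cells were exposed to test compound for 48 hours across five concentrations. GI50: concentration for 50% inhibition of growth.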 Calls of active or inactive are those of the source. Rule as the data show it: active = GI50 up to about 1.1 µM and inactive = higher.

Legend:
Assay in all cases: growth of human tumour cells (NCI), 48 h
MDA-MB-435 = tested on: MDA-MB-435
EKVX = tested on: EKVX
COLO 205 = tested on: COLO 205
NCI-H460 = tested on: NCI-H460
HOP-62 = tested on: HOP-62
Malme-3M = tested on: Malme-3M
PC-3 = tested on: PC-3
K562 = tested on: K562
HCT-15 = tested on: HCT-15
SK-MEL-5 = tested on: SK-MEL-5
RXF 393 = tested on: RXF 393
SK-MEL-28 = tested on: SK-MEL-28
TK-10 = tested on: TK-10
OVCAR-3 = tested on: OVCAR-3
BT-549 = tested on: BT-549
NCI-H23 = tested on: NCI-H23
SN12C = tested on: SN12C
HCT-116 = tested on: HCT-116
SNB-19 = tested on: SNB-19
DMS-273 = tested on: DMS-273

Compound	GI50 (MDA-MB-435)	GI50 (EKVX)	GI50 (COLO 205)	GI50 (NCI-H460)	GI50 (HOP-62)	GI50 (Malme-3M)	GI50 (PC-3)	GI50 (K562)	GI50 (HCT-15)	GI50 (SK-MEL-5)	GI50 (RXF 393)	GI50 (SK-MEL-28)	GI50 (TK-10)	GI50 (OVCAR-3)	GI50 (BT-549)	GI50 (NCI-H23)	GI50 (SN12C)	GI50 (HCT-116)	GI50 (SNB-19)	GI50 (DMS-273)
CC1OC(CC(=O)O)CC2=C1C(=O)c1c(O)cccc1C2=O (stereo not given) [NANAOMYCIN]	138 nM (active)	708 nM (active)	47.4 nM (active)	1740 nM (inactive)	1550 nM (inactive)	203 nM (active)	241 nM (active)	22 nM (active)	53.8 nM	289 nM (active)	24.2 nM (active)	63 nM (active)	929 nM (active)	81.7 nM (active)	116 nM (active)	560 nM (active)	290 nM (active)	49.9 nM (active)	1660 nM (inactive)	212 nM (active)
CCOC(=O)C(Cc1cc(OC)c(CC(C(=O)OCC)C(=O)OCC)cc1OC)C(=O)OCC	> 100000 nM (inactive)	> 100000 nM (inactive)	> 100000 nM (inactive)	> 100000 nM (inactive)	> 59300 nM (inactive)	> 100000 nM (inactive)	> 100000 nM (inactive)	> 100000 nM (inactive)	> 100000 nM	> 100000 nM (inactive)	> 55700 nM (inactive)	> 100000 nM (inactive)	> 100000 nM (inactive)	> 100000 nM (inactive)	> 100000 nM (inactive)	> 100000 nM (inactive)	> 100000 nM (inactive)	> 100000 nM (inactive)	> 68500 nM (inactive)	> 100000 nM (inactive)
Nc1nc(N)c2c(Cl)c(CNc3ccc(Cl)c(Cl)c3)ccc2n1	< 10 nM (active)	2870 nM (inactive)	239 nM (active)	< 10 nM (active)	17.1 nM (active)	471 nM (active)	< 10 nM (active)	< 10 nM (active)	< 10 nM	< 10 nM (active)	337 nM (active)	780 nM (active)	256 nM (active)	168 nM (active)	4490 nM (inactive)	10.2 nM (active)	< 104 nM (active)	< 10 nM (active)	486 nM (active)	< 25.9 nM (active)
